Experimental data: US20110230659A1, “CYCLOBUTYL PURINE DERIVATIVE, ANGIOGENESIS PROMOTING AGENT, LUMEN FORMATION PROMOTING AGENT, NEUROCYTE GROWTH PROMOTING AGENT, AND DRUG” (NATIONAL UNIVERSITY CORPORATION KAGAWA UNIVERSITY, priority 2008, published 2011)

Experiments:
ERK = ERK activation (phosphorylation) immunoblot in HUVEC; format: cell-based, human; settings: for relative value (−fold) of pERK: 100 μmol/l
Description: (§1) First, to a HuMedia-EB2 medium (Kurabo) to which 2 v/v % inactivated fetal bovine serum (FBS) had been added, 2-Cl—C.OXT-A was added so that its concentration became 100 μmol/l. Thus, a medium was prepared. Using the medium, human umbilical vein endothelial cells (HUVEC) were cultured for predetermined periods (0, 10, 20, 30, 45, and 60 minutes).
After the culture, cells were collected. The collected cells were lysed by adding a cell lysis buffer (SDS-lysis buffer) thereto, and heat-denatured at 95° C. for 5 minutes. The solubilized protein in an amount corresponding to 5 v/v % of the heat-denatured cell lysate was subjected to electrophoresis using 10% SDS-polyacrylamide gel, whereby the solubilized protein was transferred onto a nitrocellulose membrane (Amersham Biosciences). To 20 ml of TBS-T having the following composition, skim milk (Wako) was added so that its concentration became 5%, thus preparing a blocking solution. The resultant nitrocellulose membrane was immersed in the blocking solution and shaken at room temperature for 1 hour.
(§2) Primary antibodies shown below were diluted 1000-fold by adding them to 5% bovine serum albumin (Sigma)-containing TBS-T, thus preparing a primary antibody solution. The nitrocellulose membrane after being subjected to the blocking was immersed in the primary antibody solution, and shaken at room temperature for 1 hour. The resultant nitrocellulose membrane was immersed in the TBS-T and washed by being shaken for 10 minutes. This washing operation was carried out three times in total.
as §2, with “Secondary” for “Primary”, “20000-fold” for “1000-fold”, “to” for “to 5% bovine serum albumin (Sigma)-containing”, “secondary” for “primary”, “having undergone” for “after being subjected to”, “reaction with the primary antibodies” for “blocking”
(§3) The enzymes were visualized with SuperSignal (registered trademark) West Pico Chemiluminescent Substrate (Pierce), and detected by being exposed to RX—U X-ray film (FUJIFILM Corporation). From the detected bands, the respective phosphoenzymes and total enzymes were quantified using an NIH image software. Furthermore, the relative value (−fold) of each phosphoenzyme was calculated by substituting the measured value of the phosphoenzyme into the following equation (III).
Relative value(−fold)of phosphoenzyme=(B/D)/(A/C) (III)
In the present example, the effect of 2-Cl—C.OXT-A of Example 1 and C.OXT-G of Comparative Example 2 on the activation (phosphorylation) of ERK was examined. In the present example, the amount of each enzyme was measured and the relative value (−fold) of each phosphoenzyme was calculated in the same manner as in Example 3, except that: a medium to which 2-Cl—C.OXT-A had been added so as to achieve predetermined concentrations (0, 10 and 100 μmol/l) and a medium to which 100 μmol/l C.OXT-G had been added were used; the culture period after the addition was set to 20 minutes: as the primary antibodies, only an anti-phospho ERK polyclonal antibody (Catalog No. 9101, Cell Signaling Technology) and an anti-total ERK monoclonal antibody (Catalog No. 610408, BD Transduction Laboratory) were used; as the secondary antibody for ERK, a sheep HRP-labeled anti-mouse IgG antibody (Pierce) was used; and as a secondary antibody of pERK, a sheep HRP-labeled anti-rabbit IgG antibody (Pierce) was used.
In the present example, the effect of PD98059 as an MEK inhibitor on the ERK activation (phosphorylation) by 2-Cl—C.OXT-A used in Example 1 was examined. […]

[1] = tested on: cornea of Japanese white rabbit; assay: Angiogenesis test, rabbit cornea assay; format: in vivo; settings: 16 mmol/l in 30 μl of physiological saline injected to cornea, observed after 7 days
Description: In the present example, the effect of 2-Cl—C.OXT-A of Example 1 on angiogenesis was examined by a rabbit cornea assay.
A sample was prepared by adding 2-Cl—C.OXT-A to 30 μl of physiological saline so that its concentration became 16 mmol/l. The sample was injected to a cornea of Japanese white rabbit (male, 2.8 kg) under sevoflurane anesthesia. The cornea was observed after a lapse of 7 days.

[2] = tested on: Human umbilical vein endothelial cells (HUVEC); assay: Measurement of cell proliferation (Cell Counting Kit-8); format: cell-based; settings: HUVEC, 48 hours
Description: Sample solutions were prepared by dissolving 2-Cl—C.OXT-A in physiological saline so as to achieve predetermined concentrations (0.5, 1, 5, 10, 50, 100 mmol/l). Then, the sample solutions containing 2-Cl—C.OXT-A at the predetermined concentrations respectively were added to HuMedia-EB2 media (Kurabo) to which 2 v/v % inactivated fetal bovine serum (FBS) had been added so that their concentrations became 10 v/v %. Thus, cell proliferation media were prepared. The final concentrations of 2-Cl—C.OXT-A in the cell proliferation media were 50, 100, 500 μmol/l, 1, 5, and 10 mmol/1.
Human umbilical vein endothelial cells (HUVEC) suspended in a HuMedia-EG2 medium (Kurabo) were inoculated into each of gelatin-coated wells of a 96-well plate at a density of 3×10^3 cells per well, and cultured for 24 hours. 24 hours after the start of the culture, the medium was removed, and 100 μl of the cell proliferation medium was added to each well. The cells were cultured for another 48 hours. After the completion of the culture, a color reaction was caused using a Cell Counting Kit-8 (Dojindo Laboratories). 2 hours after the start of the reaction, the absorbance at 450 nm was measured using a microplate reader. As a control, a HuMedia-EB2 medium (Kurabo) to which 2 v/v % inactivated fetal bovine serum (FBS) had been added was used instead of the cell proliferation medium to carry out the culture, and a color reaction was caused and the absorbance was measured in the same manner as in the above. Then, using the following equation (I), the relative absorbance in the culture using each of the cell proliferation media containing 2-Cl—C.OXT-A at the predetermined concentrations was calculated.

Akt = Akt activation (phosphorylation) immunoblot in HUVEC; format: cell-based, human; settings: 100 μmol/l; 0 to 60 minutes
Description: as §1
After the culture, cells were collected. The collected cells were lysed by adding a cell lysis buffer (SDS-lysis buffer) thereto, and heat-denatured at 95° C. for 5 minutes. The solubilized protein in an amount corresponding to 5 v/v % of the heat-denatured cell lysate was subjected to electrophoresis using 10% SDS-polyacrylamide gel, whereby the solubilized protein was transferred onto a nitrocellulose membrane (Amersham Biosciences). […]
as §3

Compound: Nc1nc(Cl)nc2c1ncn2C1CC(CO)C1CO (stereo not drawn) [2-Cl—C.OXT-A, 6-amino-2-chloro-9-[trans-trans-2,3-bis(hydroxymethyl)cyclobutyl]purine]
- relative value (−fold) of pERK (ERK; Example 3, 20 minutes after the addition): about 11 fold
- pERK, concentration dependence (ERK; Example 4, 0, 10 and 100 μmol/l, 20 minutes): increased in a manner dependent on the concentration
- relative value (−fold) of pERK (ERK; Example 4, 20 minutes): about 10 fold
- pERK (ERK; Example 6, medium No. 2: 2-Cl—C.OXT-A 100 μmol/l, no PD98059): increased
- angiogenesis in the cornea [1]: considerable angiogenesis
- relative absorbance (cell proliferation) ([2]; final concentration 50 μmol/l to 1 mmol/l, relative to control): higher than 1
- cell proliferation ([2]; final concentration 5 mmol/l or higher): suppressed in a concentration-dependent manner
- amount of pAkt (Akt): not changed
